Holding throughout (assay type): cell-based
The target in assay [1] is hERG potassium channel (Homo sapiens, UniProt Q12809). Description: whole-cell patch clamp, HEK cells stably expressing hERG, tail current block. (Patch clamp records ionic current or voltage across a cell membrane.)
The target of assay [2] is hERG potassium channel (Homo sapiens, UniProt Q12809, F656A). Description: whole-cell patch clamp, CHO cells transiently expressing F656A hERG, high [K+].
For assay [3], the target named is hERG potassium channel (Homo sapiens, UniProt Q12809, Y652A). Briefly: whole-cell patch clamp, CHO cells transiently expressing Y652A hERG.
Sequence of hERG potassium channel (Homo sapiens, UniProt Q12809, Y652A) (Q12809 whole entry Y652A): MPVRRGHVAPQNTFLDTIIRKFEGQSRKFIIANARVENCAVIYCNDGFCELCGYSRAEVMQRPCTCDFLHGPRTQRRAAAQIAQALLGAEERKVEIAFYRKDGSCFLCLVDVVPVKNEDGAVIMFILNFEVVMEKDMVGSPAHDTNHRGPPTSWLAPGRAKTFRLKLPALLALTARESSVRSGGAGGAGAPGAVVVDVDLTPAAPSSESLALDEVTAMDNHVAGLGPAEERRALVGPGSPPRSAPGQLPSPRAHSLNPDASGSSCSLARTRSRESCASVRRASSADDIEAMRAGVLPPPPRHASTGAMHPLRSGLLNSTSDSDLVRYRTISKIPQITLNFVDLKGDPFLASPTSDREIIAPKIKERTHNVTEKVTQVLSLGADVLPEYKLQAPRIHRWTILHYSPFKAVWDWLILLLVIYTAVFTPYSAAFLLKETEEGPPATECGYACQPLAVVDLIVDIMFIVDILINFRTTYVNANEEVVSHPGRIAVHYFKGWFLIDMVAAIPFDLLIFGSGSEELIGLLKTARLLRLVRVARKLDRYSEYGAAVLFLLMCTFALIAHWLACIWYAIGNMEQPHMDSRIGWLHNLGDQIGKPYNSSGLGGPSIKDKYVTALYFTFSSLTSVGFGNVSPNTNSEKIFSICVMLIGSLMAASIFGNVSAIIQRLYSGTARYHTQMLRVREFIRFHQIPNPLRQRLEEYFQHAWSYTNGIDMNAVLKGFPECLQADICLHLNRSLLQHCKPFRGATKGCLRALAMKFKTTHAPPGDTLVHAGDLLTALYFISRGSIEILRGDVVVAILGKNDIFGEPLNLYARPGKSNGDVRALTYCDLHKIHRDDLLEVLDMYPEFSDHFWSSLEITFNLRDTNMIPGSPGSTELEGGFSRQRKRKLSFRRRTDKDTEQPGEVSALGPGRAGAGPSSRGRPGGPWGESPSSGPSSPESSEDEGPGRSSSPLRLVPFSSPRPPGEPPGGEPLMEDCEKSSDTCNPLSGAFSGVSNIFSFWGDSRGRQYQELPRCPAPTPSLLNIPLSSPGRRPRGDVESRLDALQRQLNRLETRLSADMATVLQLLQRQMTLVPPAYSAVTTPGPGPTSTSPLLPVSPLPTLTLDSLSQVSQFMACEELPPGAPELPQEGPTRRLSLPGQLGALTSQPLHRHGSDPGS

Sequence of hERG potassium channel (Homo sapiens, UniProt Q12809) (Q12809 whole entry): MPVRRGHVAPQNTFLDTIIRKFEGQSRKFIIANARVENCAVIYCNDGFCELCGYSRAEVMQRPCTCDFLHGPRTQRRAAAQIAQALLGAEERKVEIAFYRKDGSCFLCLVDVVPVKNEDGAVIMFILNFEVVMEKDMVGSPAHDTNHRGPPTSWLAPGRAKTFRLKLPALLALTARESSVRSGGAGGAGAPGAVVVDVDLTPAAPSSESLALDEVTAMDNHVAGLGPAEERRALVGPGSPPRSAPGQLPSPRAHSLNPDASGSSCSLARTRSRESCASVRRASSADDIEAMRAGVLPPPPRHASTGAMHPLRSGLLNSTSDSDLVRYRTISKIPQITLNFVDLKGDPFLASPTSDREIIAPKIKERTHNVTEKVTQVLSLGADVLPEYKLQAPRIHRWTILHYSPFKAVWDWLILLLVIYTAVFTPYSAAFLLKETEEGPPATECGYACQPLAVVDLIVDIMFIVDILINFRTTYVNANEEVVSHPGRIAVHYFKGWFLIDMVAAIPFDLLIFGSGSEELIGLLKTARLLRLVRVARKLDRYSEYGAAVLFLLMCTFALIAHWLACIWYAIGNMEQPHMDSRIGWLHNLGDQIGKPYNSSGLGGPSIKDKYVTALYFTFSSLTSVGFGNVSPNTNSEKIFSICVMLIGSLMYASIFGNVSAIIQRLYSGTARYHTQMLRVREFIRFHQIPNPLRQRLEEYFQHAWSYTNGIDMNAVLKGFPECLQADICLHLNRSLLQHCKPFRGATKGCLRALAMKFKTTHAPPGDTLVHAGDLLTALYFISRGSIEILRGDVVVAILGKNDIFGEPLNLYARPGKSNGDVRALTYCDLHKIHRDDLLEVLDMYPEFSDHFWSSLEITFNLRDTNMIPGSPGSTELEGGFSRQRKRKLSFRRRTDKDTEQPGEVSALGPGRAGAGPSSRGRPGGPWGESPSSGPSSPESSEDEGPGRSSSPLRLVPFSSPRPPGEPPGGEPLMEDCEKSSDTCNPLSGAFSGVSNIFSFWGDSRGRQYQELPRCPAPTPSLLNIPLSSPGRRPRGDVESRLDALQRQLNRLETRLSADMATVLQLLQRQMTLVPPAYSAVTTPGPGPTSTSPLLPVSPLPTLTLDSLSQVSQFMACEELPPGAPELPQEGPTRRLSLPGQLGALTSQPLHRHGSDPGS
Sequence of hERG potassium channel (Homo sapiens, UniProt Q12809, F656A) (Q12809 whole entry F656A): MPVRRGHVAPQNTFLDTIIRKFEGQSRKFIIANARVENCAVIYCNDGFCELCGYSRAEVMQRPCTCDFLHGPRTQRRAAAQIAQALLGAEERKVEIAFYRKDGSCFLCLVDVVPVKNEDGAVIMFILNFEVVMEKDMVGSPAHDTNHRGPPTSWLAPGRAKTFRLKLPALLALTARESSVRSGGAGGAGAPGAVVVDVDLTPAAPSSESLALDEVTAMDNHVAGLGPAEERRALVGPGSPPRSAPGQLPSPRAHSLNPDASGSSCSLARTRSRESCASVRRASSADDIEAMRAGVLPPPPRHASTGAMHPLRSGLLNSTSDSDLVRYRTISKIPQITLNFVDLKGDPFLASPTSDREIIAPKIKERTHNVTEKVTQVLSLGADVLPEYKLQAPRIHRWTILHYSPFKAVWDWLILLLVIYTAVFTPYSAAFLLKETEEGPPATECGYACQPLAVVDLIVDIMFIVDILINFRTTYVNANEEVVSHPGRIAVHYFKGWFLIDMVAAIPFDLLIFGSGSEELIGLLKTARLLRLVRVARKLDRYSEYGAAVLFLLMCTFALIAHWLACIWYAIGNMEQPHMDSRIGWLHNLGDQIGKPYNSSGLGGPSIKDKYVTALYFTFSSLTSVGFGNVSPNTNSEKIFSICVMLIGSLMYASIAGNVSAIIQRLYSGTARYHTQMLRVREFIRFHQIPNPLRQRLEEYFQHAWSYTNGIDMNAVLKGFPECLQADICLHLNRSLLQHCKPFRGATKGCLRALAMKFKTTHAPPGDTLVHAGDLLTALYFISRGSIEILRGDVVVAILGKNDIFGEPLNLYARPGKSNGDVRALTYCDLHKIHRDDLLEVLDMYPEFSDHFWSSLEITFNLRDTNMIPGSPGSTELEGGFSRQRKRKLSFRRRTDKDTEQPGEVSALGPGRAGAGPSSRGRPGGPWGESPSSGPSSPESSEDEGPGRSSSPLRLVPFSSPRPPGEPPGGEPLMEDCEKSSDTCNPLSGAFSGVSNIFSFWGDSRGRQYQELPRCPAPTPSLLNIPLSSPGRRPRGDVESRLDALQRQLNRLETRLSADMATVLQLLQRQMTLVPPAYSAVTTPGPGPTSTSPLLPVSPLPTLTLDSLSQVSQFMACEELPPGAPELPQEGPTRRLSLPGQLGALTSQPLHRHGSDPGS

For the compound `Cc1cccc(C)c1OCC(C)N` (stereo not drawn) [mexiletine], the IC50 was 3.7 ± 0.7 µM in assay [1], 111 ± 1.8 µM in assay [2] and 41.6 ± 6.6 µM in assay [3].

By IC50 is commonly meant the concentration that gives 50% inhibition. Higher therefore signals weaker potency in that assay.

(Values after article PMC4618635 (Pharmacology Research & Perspectives, 2015).)
